This note sets out measurements from patent US20090197957A1, “Methods and compositions for the treatment of pain” (Nuon Therapeutics, Inc., priority 2005, published 2009).

For one experiment, the system named is established CIA. In words: Treatment of established collagen-induced arthritis (clinical score, paw swelling, histology, relapse). In kind it is in vivo, DBA/1 mice. The method, then: FIG. 2 is a graphical representation of the treatment of established CIA with 3,4-DAA. DBA/1 mice were immunised with type II collagen in CFA and monitored for development of arthritis. On day 1 of arthritis, mice were injected intraperitoneally with 3,4-DAA on a daily basis. Paw thickness was measured with callipers. The clinical scoring system was as follows: 0=normal, 1=slight swelling and/or erythema, and 2=pronounced oedematous swelling. Each limb was graded, giving a maximum score of 8 per mouse. Histological assessment of arthritis was carried out on haematoxylin and eosin stained sections using a scoring system as follows: 0, normal; 1, minimal synovitis without cartilage/bone erosion; 2, synovitis with some marginal erosion but joint architecture maintained; 3, severe synovitis and erosion with loss of normal joint architecture. There were 14 mice/group (data pooled from two separate experiments).
FIG. 5 is a graphical representation of the relapse of arthritis 4 days after cessation of therapy. Mice with established CIA (n=6) were treated with 3,4-DAA (400 mg/kg/day) from days 1 to 5 of arthritis and clinical severity of arthritis was monitored up to day 12. Arthritis is seen to relapse at around day 9.
Type II collagen was purified from bovine cartilage, as described [Williams 2004, Methods Mol. Med. 98:207-216] and solubilized by stirring overnight at 4° C. in acetic acid (0.1M) or Tris buffer (0.05 M Tris, containing 0.2 M NaCl, pH 7.4). 3,4-DAA was synthesised by Angiogen Pharmaceuticals Pty. Ltd. For in vivo studies 3,4-DAA was dissolved at a maximum concentration of 10 mg/ml in 1% sodium bicarbonate by heating for 1 h at 70° C. Upon cooling, an emulsion was formed. For in vitro studies 3,4-DAA was dissolved in dimethyl sulphoxide (DMSO). 3-Hydroxy-anthranilic acid (3-HAA) was purchased from Sigma (Poole, UK) and dissolved in PBS.
Male DBA/1 mice (8-12 weeks old) were immunized intradermally at the base of the tail with bovine type II collagen (200 μg) emulsified in complete Freund's adjuvant (CFA; Difco, West Molesley, UK). Arthritis was monitored clinically using the following scoring system: 0=normal, 1=slight swelling and/or erythema, and 2=pronounced oedematous swelling. Each limb was graded, giving a maximum score of 8 per mouse. In addition, paw-swelling was measured using callipers.
Histopathological assessment of arthritis was carried out in a ‘blinded’ fashion on decalcified haematoxylin and eosin stained sections using a scoring system as follows: 0, normal; 1, minimal synovitis without cartilage/bone erosion; 2, synovitis with some marginal erosion but joint architecture maintained; 3, severe synovitis and erosion with loss of normal joint architecture. This research was approved by the local ethical review process committee and by the Home Office of Great Britain.
The ability of 3,4-DAA to treat established CIA was tested. Mice were immunised with type II collagen in CFA. On day 1 of clinical arthritis (the day that arthritis was first observed) mice were randomly assigned to different treatment groups and given 3,4-DAA (100 mg/kg/day, 200 mg/kg/day or 400 mg/kg/day) or vehicle alone over a 10 day period. […] Significant differences between 3,4-DAA treated and control mice were observed from day 3 until the end of the treatment period (day 10). On day 10 the mice were killed and the first paw to show clinical evidence of arthritis was processed for histology. Joints were examined ‘blindly’ for severity of inflammation and joint erosion.
Therefore, it is clearly of interest to establish what happens in vivo when treatment with 3,4-DAA is stopped. Is there a disease flare and if so, does it occur immediately after cessation of treatment? […] Treatment was then stopped and mice were monitored for a further 7 days.

Experiment [1] has as its system anti-type II collagen IgG1 and IgG2a. The experiment is described as follows: Serum anti-collagen antibody levels (ELISA). Type of experiment: in vivo, DBA/1 mice. How it is done:
ELISA plates (Nunc, Uxbridge, UK) were coated with 2 μg/ml of bovine CII dissolved overnight in Tris Buffer (0.05 M Tris, containing 0.2 M NaCl, pH 7.4) blocked with 2% bovine serum albumin (BSA) and then incubated with serial dilutions of test sera. A reference sample was included on each plate. Bound total IgG, IgG1 or IgG2a was detected by incubation with HRP-conjugated sheep anti-mouse IgG, IgG1 or IgG2a, followed by TMB substrate. Optical density was measured at 450 nm.
Background: An ELISA detects its analyte on a solid surface through an enzyme-linked reagent.

In a further experiment the test system is purified T cells. The experiment is described as follows: T cell proliferation in vitro (anti-CD3/anti-CD28, 3H-thymidine incorporation). Type of experiment: cell-based. Conditions: anti-CD3/anti-CD28 stimulation, 72 h; for IC50: T-cell, read-out: IC50 for inhibition of T cell proliferation; for T cell proliferation: varying doses. The method, then: FIG. 7 is a graphical representation depicting that 3,4-DAA and 3-HAA inhibit B and T cell proliferation in vitro. Purified B and T cells were stimulated for 72 h with anti-CD40 (a), or anti-CD3/anti-CD28 (b) respectively, in the presence of varying doses of 3,4-DAA, or 3-HAA.
A single cell suspension was prepared by pushing splenic tissue through a cell strainer, and erythrocytes were lysed using an ammonium chloride solution (Sigma, St Louis, Mo.). B cells were positively enriched by using anti-IgM microbeads (BD Pharmingen), and T cells were positively enriched using anti-CD4 MACS microbeads, according to the manufacturer's guidelines (Miltenyi Biotec, Bergisch Gladbach, Germany). Purity was assessed by flow cytometric analysis (B cell>90% CD19+, T cell>90% CD4+). Cells were cultured at 5×10^5 cells/ml in 200 μl complete RPMI, as above, in a flat bottom 96-well plate and cultured for 72 h. B cells were stimulated with anti-CD40 monoclonal antibody (10 μg/ml; BD), and T cells were stimulated with 5 μg/ml plate-bound anti-CD3 (ebiosciences) plus 5 μg/ml soluble anti-CD28 (ebiosciences). 3,4-DAA, 3-HAA, or vehicle (DMSO) was added at graded concentrations immediately prior to stimulation. 48 hours after stimulation, 100 μl culture medium was collected, and cells were pulsed with 1 μCi ^3H thymidine per well for 18 h. Cells were then harvested and plates assessed for thymidine incorporation. Each assay was performed on a minimum of 3 occasions. IFN-γ, IL-10 and IL-5 levels were assessed in the culture medium by ELISA, as above.
Activation of purified B (FIG. 7a) and T cells (FIG. 7b) was induced by anti-CD40, and anti-CD3/CD28 respectively, and proliferation was assessed by ^3H-thymidine incorporation. […] Inhibition of proliferation was also observed when B cells were stimulated with LPS or anti-IgM. […] It was concluded that the effects of 3,4-DAA and 3-HAA on T and B cells in vitro were remarkably similar, though not identical. It is of also note that 3-HAA had no action on inflammation or allodynia, when administered therapeutically in CIA at doses of up to 400 mg/kg/day.
(In general: Incorporation of labelled thymidine or its analogues reports DNA synthesis.)

Where [2] appears, read: established CIA, 100, 200 or 400 mg/kg/day over 10 days.
Where [3] appears, read: up to 10 days therapy, 3,4-DAA 200 mg/kg/day, dexamethasone 0.5 mg/kg/2 days.

In the case of `COc1ccc(/C=C/C(=O)Nc2ccccc2C(=O)O)cc1OC` [Tranilast, 2-[[3-(3,4-dimethoxyphenyl)-1-oxo-2-propenyl]amino]benzoic acid], the “arthritis severity during the treatment period” value in the experiment on established CIA (400 mg/kg/day from day 1 to day 5 of arthritis) is listed as “dramatic reduction”. In addition, the “day of arthritis on which exacerbation/relapse was observed after treatment stopped on day 5” value in the experiment on established CIA (400 mg/kg/day from days 1 to 5, monitored up to day 12) came out at 9 days. For the same compound, in the experiment on established CIA (setting [2]), the clinical scores entry is reported as “dose-dependent reduction” and the paw-swelling entry was “dose-dependent reduction”. Besides, the “histological severity of arthritis” value with established CIA (established CIA, 100, 200 or 400 mg/kg/day, day 10) was “dose-dependent reduction”. In the experiment with established CIA (setting [3]), the clinical score result is “significantly reduced” and the paw swelling entry is recorded as “significantly reduced”. For the same compound, in experiment [1] (200 mg/kg/day from the day of immunisation), the “anti-collagen IgG1 or IgG2a levels in sera” value is listed as “no change”. Moreover, the “anti-type II collagen IgG1 and IgG2a levels in sera” value in experiment [1] (setting [2]) is “no differences”. In addition, in the experiment with purified T cells, the IC50 came to 28 µM and the T cell proliferation entry is “dose-dependently inhibited”.

As for `Nc1c(O)cccc1C(=O)O` [3-Hydroxyanthranilic acid], in the experiment on established CIA (administered therapeutically at doses of up to 400 mg/kg/day), the “action on inflammation in CIA” value was “no action”. Further, in the experiment on purified T cells, the IC50 turned out to be 100 µM and the T cell proliferation entry was “dose-dependently inhibited”.
